Assay results from PubChem BioAssay (NCI).
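Growth conditions: 96-well plates. Treatment: test compound, 48 hours, 5 concentrations. Analysis: linear interpolation between bracketing concentrations; unreached endpoints set to highest concentration. TGI is the concentration that stops growth completely.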

How the values were obtained:
Test in all cases: DTP human tumour cell line panel, 48 h
[1] = tested on: OVCAR-8 ovarian
[2] = tested on: NCI-H522 lung
[3] = tested on: UACC-62 melanoma
[4] = tested on: TK-10 renal
[5] = tested on: NCI-H460 lung
[6] = tested on: HOP-92 NSCLC
[7] = tested on: SNB-75 CNS
[8] = tested on: HT29 colon
[9] = tested on: SNB-19 CNS
[10] = tested on: SW-620 colon
[11] = tested on: UO-31 renal
[12] = tested on: A549 NSCLC
[13] = tested on: LOX IMVI melanoma
[14] = tested on: SF-539 CNS
[15] = tested on: SK-MEL-2 melanoma
[16] = tested on: U251 CNS
[17] = tested on: SF-295 CNS
[18] = tested on: ACHN renal
[19] = tested on: BT-549 breast
[20] = tested on: MCF7 breast

Question: Which results are given for `CCCCOC(=O)CN1C(=O)c2ccccc2C1=O`?
Answer: TGI [1]: > 100 µM; TGI [2]: > 100 µM; TGI [3]: > 100 µM; TGI [4]: > 100 µM; TGI [5]: > 100 µM; TGI [6]: > 100 µM; TGI [7]: > 100 µM; TGI [8]: > 100 µM; TGI [9]: > 100 µM; TGI [10]: > 100 µM; TGI [11]: > 100 µM; TGI [12]: > 100 µM; TGI [13]: > 100 µM; TGI [14]: > 100 µM; TGI [15]: > 100 µM; TGI [16]: > 100 µM; TGI [17]: > 100 µM; TGI [18]: > 100 µM

Question: Which results are given for `O=C(CCl)N1CCCCC1C1(c2cc3ccccc3[nH]2)OCCO1` (stereo not given)?
Answer: TGI [1]: 17.6 µM; TGI [19]: 6.83 µM; TGI [2]: 0.448 µM; TGI [3]: 7.87 µM; TGI [4]: 10.1 µM; TGI [5]: > 34.5 µM; TGI [20]: 8.97 µM; TGI [6]: 24.7 µM; TGI [7]: 7.3 µM; TGI [8]: 17.6 µM; TGI [9]: 31.5 µM; TGI [10]: 58.9 µM; TGI [11]: 11.3 µM; TGI [12]: 23.3 µM; TGI [13]: 0.141 µM; TGI [14]: 4.51 µM; TGI [15]: 20.2 µM; TGI [16]: 12.7 µM; TGI [17]: 11.5 µM; TGI [18]: 13.9 µM

Question: How did the TGI [1] turn out when `COc1cc(CC2CCc3nc(N)nc(N)c3C2)cc(OC)c1OC` (stereo not given) was run?
Answer: Its TGI is greater than 100 µM.

Question: And the TGI [19]?
Answer: The TGI was greater than 100 µM.

Question: What about the TGI [2] of the same molecule?
Answer: The TGI was 17 µM.

Question: And the TGI [3]?
Answer: The TGI was greater than 100 µM.

Question: What about the TGI [4] of the same molecule?
Answer: Its TGI is greater than 100 µM.

Question: And the TGI [5]?
Answer: Its TGI is greater than 91.5 µM.

Question: What about the TGI [20] of the same molecule?
Answer: The TGI was greater than 100 µM.

Question: And the TGI [6]?
Answer: Its TGI is greater than 100 µM.

Question: What about the TGI [7] of the same molecule?
Answer: The TGI was greater than 48.8 µM.

Question: What about the TGI [8] of the same molecule?
Answer: Its TGI is greater than 100 µM.

Question: What about the TGI [9] of the same molecule?
Answer: The TGI was greater than 100 µM.

Question: What about the TGI [10] of the same molecule?
Answer: The TGI was greater than 100 µM.

Question: What about the TGI [11] of the same molecule?
Answer: The TGI was greater than 71.5 µM.

Question: And the TGI [12]?
Answer: Its TGI is greater than 100 µM.

Question: What about the TGI [13] of the same molecule?
Answer: Its TGI is greater than 43.1 µM.

Question: And the TGI [14]?
Answer: Its TGI is greater than 60.4 µM.

Question: And the TGI [15]?
Answer: The TGI was greater than 56.6 µM.

Question: What about the TGI [16] of the same molecule?
Answer: The TGI was greater than 100 µM.

Question: What about the TGI [17] of the same molecule?
Answer: Its TGI is greater than 51.3 µM.

Question: What about the TGI [18] of the same molecule?
Answer: The TGI was greater than 45.6 µM.

Question: With `C#CCCCC(=C)C[C@H](OCc1ccccc1)[C@H]1OC(=O)[C@@H]1C` as the molecule, how does the TGI [1] read?
Answer: Its TGI is greater than 100 µM.

Question: What about the TGI [19] of the same molecule?
Answer: The TGI was greater than 100 µM.

Question: And the TGI [3]?
Answer: The TGI was greater than 100 µM.

Question: And the TGI [4]?
Answer: Its TGI is greater than 100 µM.

Question: And the TGI [5]?
Answer: The TGI was greater than 100 µM.

Question: What about the TGI [20] of the same molecule?
Answer: The TGI was greater than 100 µM.

Question: And the TGI [6]?
Answer: Its TGI is greater than 100 µM.

Question: What about the TGI [7] of the same molecule?
Answer: Its TGI is greater than 100 µM.

Question: What about the TGI [9] of the same molecule?
Answer: The TGI was greater than 100 µM.

Question: And the TGI [10]?
Answer: The TGI was greater than 100 µM.

Question: And the TGI [11]?
Answer: Its TGI is 58.8 µM.

Question: What about the TGI [12] of the same molecule?
Answer: Its TGI is greater than 100 µM.

Question: What about the TGI [14] of the same molecule?
Answer: Its TGI is 68.5 µM.

Question: What about the TGI [15] of the same molecule?
Answer: Its TGI is greater than 100 µM.

Question: And the TGI [16]?
Answer: Its TGI is greater than 100 µM.

Question: What about the TGI [17] of the same molecule?
Answer: Its TGI is greater than 100 µM.

Question: What about the TGI [18] of the same molecule?
Answer: Its TGI is greater than 100 µM.
